Legend:
Format in all cases: biochemical
LTK (TYK1) = molecular target: T1, LTK (TYK1) (Homo sapiens, UniProt P29376); experiment: Kinase screening service: LTK; details: average of duplicates
T1 construct: purchased Life Technologies Corporation (Kinase Screening Service)
Protocol: (§1) The inhibitory effect of PT109 on other kinases including SGK and JNK was detected by the Kinase Screening Service of Life Technologies Corporation (The concentration of compound 9 was 10 μM, measurements were performed in duplicates, and the value was represented by an average) to investigate the selectivity of the compound for JNK and SGK1.

[1] = molecular target: T2, MAP2K1 (MEK1) S218D S222D (Homo sapiens, UniProt Q02750, S218D/S222D); experiment: Kinase screening service: MAP2K1 S218D S222D; details: average of duplicates
T2 construct: purchased Life Technologies Corporation (Kinase Screening Service)
T2 sequence (Q02750 whole entry S218D/S222D): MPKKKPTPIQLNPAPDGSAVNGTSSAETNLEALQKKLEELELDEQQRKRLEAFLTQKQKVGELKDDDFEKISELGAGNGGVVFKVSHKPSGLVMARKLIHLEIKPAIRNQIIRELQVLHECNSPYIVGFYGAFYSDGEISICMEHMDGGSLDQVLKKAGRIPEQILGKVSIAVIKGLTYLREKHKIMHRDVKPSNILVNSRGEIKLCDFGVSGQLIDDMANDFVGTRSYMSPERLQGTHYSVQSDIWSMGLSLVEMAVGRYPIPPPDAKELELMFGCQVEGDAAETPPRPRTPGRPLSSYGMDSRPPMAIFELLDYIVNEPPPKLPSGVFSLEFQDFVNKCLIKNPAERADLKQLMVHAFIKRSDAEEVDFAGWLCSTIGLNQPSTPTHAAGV
Protocol: as §1

MAPK9 (JNK2) = molecular target: T3, MAPK9 (JNK2) (Homo sapiens, UniProt P45984); experiment: Kinase screening service (Life Technologies): JNK2; details: average of duplicates
T3 construct: purchased Life Technologies Corporation (kinase screening service)
T3 sequence (P45984 whole entry): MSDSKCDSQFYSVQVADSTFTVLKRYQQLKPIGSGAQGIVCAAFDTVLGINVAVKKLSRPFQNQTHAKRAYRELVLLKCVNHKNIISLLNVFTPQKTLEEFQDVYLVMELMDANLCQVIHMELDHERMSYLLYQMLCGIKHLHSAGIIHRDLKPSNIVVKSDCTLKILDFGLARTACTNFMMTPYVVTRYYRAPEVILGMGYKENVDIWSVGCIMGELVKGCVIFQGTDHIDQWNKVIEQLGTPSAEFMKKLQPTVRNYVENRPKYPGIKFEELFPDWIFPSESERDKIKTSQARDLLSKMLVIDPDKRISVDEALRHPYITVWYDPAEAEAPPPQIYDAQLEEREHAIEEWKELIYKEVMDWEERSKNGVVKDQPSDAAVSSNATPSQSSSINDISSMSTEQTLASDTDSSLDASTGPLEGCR
Protocol: (§2) The inhibitory effect of PT109 on SGK and INK was detected by the kinase screening commercialization service of Life Technologies Corporation.
as §1

SGK3 = molecular target: T4, SGK3 (Homo sapiens, UniProt Q96BR1); experiment: Kinase screening service (Life Technologies): SGK3
T4 construct: purchased Life Technologies Corporation (kinase screening service)
Excerpt: as §2

PIK3C3 (hVPS34) = molecular target: T5, PIK3C3 (hVPS34) (Homo sapiens, UniProt Q8NEB9); experiment: Kinase screening service: PIK3C3; details: average of duplicates
T5 construct: purchased Life Technologies Corporation (Kinase Screening Service)
Protocol: as §1

PIK3C2A (PI3K-C2 alpha) = molecular target: T6, PIK3C2A (PI3K-C2 alpha) (Homo sapiens, UniProt O00443); experiment: Kinase screening service: PIK3C2A; details: average of duplicates
T6 construct: purchased Life Technologies Corporation (Kinase Screening Service)
Protocol: as §1

MAPK8 (JNK1) = molecular target: T7, MAPK8 (JNK1) (Homo sapiens, UniProt P45983); experiment: Kinase screening service (Life Technologies): JNK1
T7 construct: purchased Life Technologies Corporation (kinase screening service)
T7 sequence (P45983 whole entry): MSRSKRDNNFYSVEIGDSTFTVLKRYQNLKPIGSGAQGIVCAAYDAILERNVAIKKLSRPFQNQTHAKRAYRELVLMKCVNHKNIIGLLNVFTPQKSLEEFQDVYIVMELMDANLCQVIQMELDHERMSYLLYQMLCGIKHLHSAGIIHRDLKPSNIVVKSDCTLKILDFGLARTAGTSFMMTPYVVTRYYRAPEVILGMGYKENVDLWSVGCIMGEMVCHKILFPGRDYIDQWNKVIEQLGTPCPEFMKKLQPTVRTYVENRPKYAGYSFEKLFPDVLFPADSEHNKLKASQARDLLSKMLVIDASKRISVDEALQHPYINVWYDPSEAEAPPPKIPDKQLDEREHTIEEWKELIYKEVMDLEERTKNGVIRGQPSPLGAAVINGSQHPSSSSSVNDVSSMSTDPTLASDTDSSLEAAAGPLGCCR
Protocol: as §2, §1

AURKC (Aurora C) = molecular target: T8, AURKC (Aurora C) (Homo sapiens, UniProt Q9UQB9); experiment: Kinase screening service: AURKC; details: average of duplicates
T8 construct: purchased Life Technologies Corporation (Kinase Screening Service)
Protocol: as §1

MAP4K4 (HGK) = molecular target: T9, MAP4K4 (HGK) (Homo sapiens, UniProt O95819); experiment: Kinase screening service: MAP4K4; details: average of duplicates
T9 construct: purchased Life Technologies Corporation (Kinase Screening Service)
Protocol: as §1

PTK6 (Brk) = molecular target: T10, PTK6 (Brk) (Homo sapiens, UniProt Q13882); experiment: Kinase screening service: PTK6; details: average of duplicates
T10 construct: purchased Life Technologies Corporation (Kinase Screening Service)
Protocol: as §1

PRKCG (PKC gamma) = molecular target: T11, PRKCG (PKC gamma) (Homo sapiens, UniProt P05129); experiment: Kinase screening service: PRKCG; details: average of duplicates
T11 construct: purchased Life Technologies Corporation (Kinase Screening Service)
Protocol: as §1

NTRK1 (TRKA) = molecular target: T12, NTRK1 (TRKA) (Homo sapiens, UniProt P04629); experiment: Kinase screening service: NTRK1; details: average of duplicates
T12 construct: purchased Life Technologies Corporation (Kinase Screening Service)
Protocol: as §1

CSNK1E (CK1 epsilon) = molecular target: T13, CSNK1E (CK1 epsilon) (Homo sapiens, UniProt P49674); experiment: Kinase screening service: CSNK1E; details: average of duplicates
T13 construct: purchased Life Technologies Corporation (Kinase Screening Service)
T13 sequence (P49674 whole entry): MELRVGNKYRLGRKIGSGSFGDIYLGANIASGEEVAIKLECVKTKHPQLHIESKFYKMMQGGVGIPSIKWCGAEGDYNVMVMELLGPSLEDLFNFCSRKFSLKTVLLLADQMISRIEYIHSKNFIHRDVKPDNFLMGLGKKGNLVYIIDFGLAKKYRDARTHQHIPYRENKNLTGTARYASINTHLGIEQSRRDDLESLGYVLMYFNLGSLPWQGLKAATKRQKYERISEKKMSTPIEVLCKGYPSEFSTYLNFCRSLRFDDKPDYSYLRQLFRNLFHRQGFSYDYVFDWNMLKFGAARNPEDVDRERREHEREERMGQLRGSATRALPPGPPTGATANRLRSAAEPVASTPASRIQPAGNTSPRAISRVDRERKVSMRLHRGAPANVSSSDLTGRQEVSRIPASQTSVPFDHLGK
Protocol: as §1

MAPK10 (JNK3) = molecular target: T14, MAPK10 (JNK3) (Homo sapiens, UniProt P53779); experiment: Kinase screening service (Life Technologies): JNK3; details: average of duplicates
T14 construct: purchased Life Technologies Corporation (kinase screening service)
T14 sequence (P53779 whole entry): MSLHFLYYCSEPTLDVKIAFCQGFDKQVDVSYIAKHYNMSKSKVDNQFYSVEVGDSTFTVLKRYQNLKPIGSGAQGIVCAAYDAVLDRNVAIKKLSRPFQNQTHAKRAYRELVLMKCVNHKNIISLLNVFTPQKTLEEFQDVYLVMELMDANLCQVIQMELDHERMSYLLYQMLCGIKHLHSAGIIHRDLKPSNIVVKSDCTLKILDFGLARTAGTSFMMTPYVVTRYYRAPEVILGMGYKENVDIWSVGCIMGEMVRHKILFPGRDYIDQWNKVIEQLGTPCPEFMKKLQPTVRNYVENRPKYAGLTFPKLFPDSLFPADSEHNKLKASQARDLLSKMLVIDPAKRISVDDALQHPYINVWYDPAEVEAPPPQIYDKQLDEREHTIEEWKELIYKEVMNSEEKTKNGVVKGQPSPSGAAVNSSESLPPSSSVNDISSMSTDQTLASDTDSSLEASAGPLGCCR
Protocol: as §2, §1

MAP3K9 (MLK1) = molecular target: T15, MAP3K9 (MLK1) (Homo sapiens, UniProt P80192); experiment: Kinase screening service: MAP3K9; details: average of duplicates
T15 construct: purchased Life Technologies Corporation (Kinase Screening Service)
Protocol: as §1

STK22D (TSSK1) = molecular target: T16, STK22D (TSSK1) (Homo sapiens, UniProt Q9BXA7); experiment: Kinase screening service: STK22D; details: average of duplicates
T16 construct: purchased Life Technologies Corporation (Kinase Screening Service)
Protocol: as §1

SLK = molecular target: T17, SLK (Homo sapiens, UniProt Q9H2G2); experiment: Kinase screening service: SLK; details: average of duplicates
T17 construct: purchased Life Technologies Corporation (Kinase Screening Service)
Protocol: as §1

[2] = molecular target: T18, PIK3CD/PIK3R1 (p110 delta/p85 alpha) (Homo sapiens, UniProt O00329); experiment: Kinase screening service: PIK3CD/PIK3R1; details: average of duplicates
T18 construct: purchased Life Technologies Corporation (Kinase Screening Service)
T18 sequence (O00329 whole entry): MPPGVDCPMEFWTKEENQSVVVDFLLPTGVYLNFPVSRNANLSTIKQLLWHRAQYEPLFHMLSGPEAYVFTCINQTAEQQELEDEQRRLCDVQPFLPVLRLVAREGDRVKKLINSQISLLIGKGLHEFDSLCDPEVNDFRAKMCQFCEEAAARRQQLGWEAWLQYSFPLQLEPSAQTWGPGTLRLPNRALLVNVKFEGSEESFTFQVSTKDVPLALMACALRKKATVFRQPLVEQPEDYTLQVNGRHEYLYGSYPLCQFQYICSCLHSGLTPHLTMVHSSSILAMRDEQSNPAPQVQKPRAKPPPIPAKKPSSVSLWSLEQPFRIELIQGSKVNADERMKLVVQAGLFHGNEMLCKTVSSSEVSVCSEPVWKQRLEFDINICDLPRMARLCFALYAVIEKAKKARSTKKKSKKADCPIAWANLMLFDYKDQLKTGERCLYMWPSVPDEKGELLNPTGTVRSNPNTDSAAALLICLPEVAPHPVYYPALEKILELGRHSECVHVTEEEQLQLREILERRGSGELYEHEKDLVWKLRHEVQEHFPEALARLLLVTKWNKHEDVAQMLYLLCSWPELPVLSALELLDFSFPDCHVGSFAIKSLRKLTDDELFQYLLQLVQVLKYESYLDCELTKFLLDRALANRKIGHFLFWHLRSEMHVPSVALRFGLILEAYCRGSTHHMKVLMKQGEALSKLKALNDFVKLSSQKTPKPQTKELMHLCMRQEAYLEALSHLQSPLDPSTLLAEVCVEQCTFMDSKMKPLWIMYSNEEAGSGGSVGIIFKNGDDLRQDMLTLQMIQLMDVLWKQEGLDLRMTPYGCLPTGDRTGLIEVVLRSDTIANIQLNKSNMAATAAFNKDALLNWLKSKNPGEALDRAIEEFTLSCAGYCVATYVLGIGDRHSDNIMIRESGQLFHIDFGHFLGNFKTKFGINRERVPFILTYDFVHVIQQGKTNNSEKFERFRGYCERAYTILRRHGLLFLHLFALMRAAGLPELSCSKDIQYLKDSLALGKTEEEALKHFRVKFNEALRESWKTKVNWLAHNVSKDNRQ
T18 sequence (P27986 whole entry partner): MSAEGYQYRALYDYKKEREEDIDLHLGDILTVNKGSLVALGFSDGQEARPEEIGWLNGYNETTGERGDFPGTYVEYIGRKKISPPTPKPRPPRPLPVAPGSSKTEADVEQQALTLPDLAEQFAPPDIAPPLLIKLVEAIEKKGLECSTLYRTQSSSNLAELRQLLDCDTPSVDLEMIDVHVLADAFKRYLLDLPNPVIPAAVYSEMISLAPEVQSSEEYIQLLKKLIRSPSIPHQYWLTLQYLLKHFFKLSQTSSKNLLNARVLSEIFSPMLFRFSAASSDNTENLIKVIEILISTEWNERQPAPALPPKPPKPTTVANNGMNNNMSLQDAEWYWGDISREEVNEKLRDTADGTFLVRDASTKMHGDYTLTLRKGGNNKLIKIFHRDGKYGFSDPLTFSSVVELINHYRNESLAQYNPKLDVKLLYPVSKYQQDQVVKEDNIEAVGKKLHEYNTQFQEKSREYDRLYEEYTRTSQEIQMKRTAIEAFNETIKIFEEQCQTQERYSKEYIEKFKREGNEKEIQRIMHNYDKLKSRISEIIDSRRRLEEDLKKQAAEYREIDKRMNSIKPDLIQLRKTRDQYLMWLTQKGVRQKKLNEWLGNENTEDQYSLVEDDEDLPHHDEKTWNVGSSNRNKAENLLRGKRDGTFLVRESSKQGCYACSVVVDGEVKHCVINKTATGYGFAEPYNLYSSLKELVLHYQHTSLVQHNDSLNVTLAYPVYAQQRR
Protocol: as §1

PRKCB1 (PKC beta I) = molecular target: T19, PRKCB1 (PKC beta I) (Homo sapiens, UniProt P05771); experiment: Kinase screening service: PRKCB1; details: average of duplicates
T19 construct: purchased Life Technologies Corporation (Kinase Screening Service)
T19 sequence (P05771 whole entry): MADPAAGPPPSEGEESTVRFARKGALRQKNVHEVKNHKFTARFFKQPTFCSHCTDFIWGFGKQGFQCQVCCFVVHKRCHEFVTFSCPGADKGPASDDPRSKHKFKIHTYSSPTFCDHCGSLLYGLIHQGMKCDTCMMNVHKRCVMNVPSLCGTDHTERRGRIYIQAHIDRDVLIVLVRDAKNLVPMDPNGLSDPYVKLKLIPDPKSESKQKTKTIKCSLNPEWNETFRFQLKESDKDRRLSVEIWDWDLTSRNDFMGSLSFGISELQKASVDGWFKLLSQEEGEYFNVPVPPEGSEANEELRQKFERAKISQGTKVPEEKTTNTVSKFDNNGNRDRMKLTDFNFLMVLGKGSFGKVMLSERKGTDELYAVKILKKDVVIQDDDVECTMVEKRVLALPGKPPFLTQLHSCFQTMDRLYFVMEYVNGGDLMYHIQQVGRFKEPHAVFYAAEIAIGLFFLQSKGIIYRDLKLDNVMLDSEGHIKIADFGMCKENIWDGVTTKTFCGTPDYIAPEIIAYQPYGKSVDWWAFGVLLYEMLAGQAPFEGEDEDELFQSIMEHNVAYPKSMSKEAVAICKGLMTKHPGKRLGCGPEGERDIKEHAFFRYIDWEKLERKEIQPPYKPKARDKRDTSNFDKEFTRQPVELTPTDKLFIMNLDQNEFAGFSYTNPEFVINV
Protocol: as §1

SGK (SGK1) [3] = molecular target: T20, SGK (SGK1) (Homo sapiens, UniProt O00141); experiment: Kinase screening service (Life Technologies): SGK1; details: SGK (SGK1)
T20 construct: IC50; other: SGK (SGK1); other: 10 μM, average of duplicates; SGK (SGK1)
T20 sequence (O00141 whole entry S422D, form open): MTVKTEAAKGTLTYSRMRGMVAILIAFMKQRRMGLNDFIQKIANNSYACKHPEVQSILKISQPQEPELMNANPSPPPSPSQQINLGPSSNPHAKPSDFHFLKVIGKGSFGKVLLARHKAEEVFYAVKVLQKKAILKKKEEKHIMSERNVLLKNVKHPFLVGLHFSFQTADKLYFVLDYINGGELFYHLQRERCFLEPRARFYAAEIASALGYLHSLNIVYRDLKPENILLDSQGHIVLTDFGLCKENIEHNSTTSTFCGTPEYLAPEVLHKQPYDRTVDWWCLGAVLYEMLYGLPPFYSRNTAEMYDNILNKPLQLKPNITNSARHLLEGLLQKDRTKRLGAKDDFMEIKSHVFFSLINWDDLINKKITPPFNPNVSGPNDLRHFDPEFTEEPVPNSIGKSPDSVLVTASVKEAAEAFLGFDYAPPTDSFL
Protocol: as §2, §1

SGK (SGK1) [4] = experiment: Kinase screening service (Life Technologies): SGK1; details: SGK1 versus SGK2 and SGK3
Protocol: as §2, §1

RPS6KA3 (RSK2) = molecular target: T21, RPS6KA3 (RSK2) (Homo sapiens, UniProt P51812); experiment: Kinase screening service: RPS6KA3; details: average of duplicates
T21 construct: purchased Life Technologies Corporation (Kinase Screening Service)
Protocol: as §1

`O=C(CCCCC1CCSS1)NC1CCC(Nc2cccc3cnccc23)CC1` (stereo not drawn) [PT109, 5-(1,2-dithiolan-3-yl)-N-(4-(isoquinolin-5-ylamino)cyclohexyl) pentanamide] showed an inhibition at 10 µM (LTK (TYK1)) of 40%, an inhibition at 10 µM [1] of 13% and an inhibition at 10 µM (MAPK9 (JNK2)) of 91%. It also gave an IC50 (SGK3) of 26.4 µM, an inhibition at 10 µM (PIK3C3 (hVPS34)) of 11% and an inhibition at 10 µM (PIK3C2A (PI3K-C2 alpha)) of 3%. For the same compound, the IC50 (MAPK8 (JNK1)) was 143 nM, the inhibition at 10 µM (MAPK8 (JNK1); 10 μM, average of duplicates) was 104% and the inhibition at 10 µM (AURKC (Aurora C)) was 5%. The inhibition at 10 µM (MAP4K4 (HGK)) was 34%, the inhibition at 10 µM (PTK6 (Brk)) was 7% and the inhibition at 10 µM (PRKCG (PKC gamma)) was 63%. The inhibition at 10 µM (NTRK1 (TRKA)) was 35%, the inhibition at 10 µM (CSNK1E (CK1 epsilon)) was 10% and the inhibition at 10 µM (MAPK10 (JNK3)) was 90%. It also gave an inhibition at 10 µM (MAP3K9 (MLK1)) of 2%, an inhibition at 10 µM (STK22D (TSSK1)) of -2% and an inhibition at 10 µM (SLK) of 5%. For the same compound, the inhibition at 10 µM [2] was 48%, the inhibition at 10 µM (PRKCB1 (PKC beta I)) was -10% and the “% Inhibition” value (SGK (SGK1) [3]; 10 μM, average of duplicates) was 91%. The IC50 (SGK (SGK1) [3]) was 1340 nM, the “specificity for SGK1” value (SGK (SGK1) [4]) was “better specificity for SGK1” and the inhibition at 10 µM (RPS6KA3 (RSK2)) was 54%.

— patent US10723724B2, “Compounds for treating degenerative diseases of central nervous system or brain tumor, and uses thereof” (SUN YAT-SEN UNIVERSITY, priority 2016, dated 2020)
